Literature values, collected in patent publication US20220160693A1, “PHARMACEUTICAL COMPOSITION OF PROLYL HYDROXYLASE INHIBITOR AND PREPARATION METHOD THEREFOR” (Jiangsu Hengrui Medicine Co., Ltd., priority 2019, published 2022).

Tested on: prolyl hydroxylase

Inhibition effect on prolyl hydroxylase (in words): excellent inhibition effect
SMILES: O=C(O)CNC(=O)c1ncc(C#CCOc2ccc(Cl)cc2)cc1O [compound of formula (I), 2-(3-hydroxy-5-(3-p-chlorophenoxypropyn-1-yl))picolinamido acetic acid]
